Values of other authors, collected in patent US7855190B2, “Methods of hormonal treatment utilizing contraceptive regimens with continuous estrogen administration” (Teva Women's Health, Inc., priority 2003, dated 2010).

Settings: for amount equivalent to 0.050 mg of levonorgestrel: relative potency of progestins; for amount roughly equivalent to 30 μg of ethinyl estradiol: relative potency of estrogens

Structure (SMILES) | amount equivalent to 0.050 mg of levonorgestrel | amount roughly equivalent to 30 μg of ethinyl estradiol
C#C[C@]1(OC(C)=O)CC[C@H]2[C@@H]3CCC4=CC(=O)CC[C@@H]4[C@H]3CC[C@@]21C [norethindrone acetate] | about 0.175 mg | –
C#C[C@]1(O)CC[C@H]2[C@@H]3CCC4=CCCC[C@@H]4[C@H]3C(=C)C[C@@]21CC [desogestrel] | about 0.050 mg | –
C#C[C@]1(O)C=C[C@H]2[C@@H]3CCC4=CC(=O)CC[C@@H]4[C@H]3CC[C@@]21CC [gestodene] | about 0.035 mg | –
C#C[C@]1(O)CC[C@H]2[C@@H]3CCC4=CC(=O)CC[C@@H]4[C@H]3C(=C)C[C@@]21CC [3-ketodesogestrel] | about 0.050 mg | –
C#CC1(O)CC[C@H]2[C@@H]3CCC4=CC(=O)CC[C@@H]4[C@H]3CC[C@@]21CC (mixture of isomers) [norgestrel] | about 0.100 mg | –
C[C@]12CC[C@@H]3c4ccc(O)cc4CC[C@H]3[C@@H]1CC[C@@H]2O [17β-estradiol] | – | ~2,000 μg
C#C[C@]1(O)CC[C@H]2[C@@H]3CCc4cc(OC)ccc4[C@H]3CC[C@@]21C [mestranol] | – | ~60 µg
